Calls of active or inactive are those of the source. How the calls were made is not given here.
Target: Glycogen synthase kinase-3 beta splice variant X1 (Bos taurus) (UniProt A0A059UE90)
Experiment: Inhibition of bovine cerebral TPK1 assessed as reduction in P-GS1 phosphorylation using [32gammaP]ATP incubated for 2 hrs by liquid scintillation counting method

inhibition, active:
Cn1c(N2CCO[C@@H](c3ccc(NC(=O)N4CCOCC4)cc3)C2)nc(-c2ccncc2F)cc1=O
Cn1c(N2CCO[C@@H](c3ccc(-c4ncon4)cc3)C2)nc(-c2ccncc2F)cc1=O
CN(c1ccc([C@H]2CN(c3nc(-c4ccncc4F)cc(=O)n3C)CCO2)cc1)C1CCOCC1
CN(c1ccc([C@H]2CN(c3nc(-c4ccncc4F)cc(=O)n3C)CCO2)cc1)C1CCCCC1
CC(C)N1CCN(c2ccc([C@H]3CN(c4nc(-c5ccncc5F)cc(=O)n4C)CCO3)cc2)CC1
Cn1c(N2CCO[C@@H](c3ccc(OCC4CC4)cc3)C2)nc(-c2ccncc2F)cc1=O
Cn1c(N2CCN[C@@H](c3ccc(N4CCC(N5CCCC5)CC4)cc3)C2)nc(-c2ccncc2F)cc1=O
Cn1c(N2CCO[C@@H](c3ccc(NC45CC6CC(CC(C6)C4)C5)cc3)C2)nc(-c2ccncc2F)cc1=O
Cn1c(N2CCO[C@@H](c3ccc(N4CCCCC4=O)cc3)C2)nc(-c2ccncc2F)cc1=O
C[C@@H]1CN(c2ccc([C@H]3CN(c4nc(-c5ccncc5F)cc(=O)n4C)CCO3)cc2)C[C@H](C)O1
CN(C)CCCOc1ccc([C@H]2CN(c3nc(-c4ccncc4F)cc(=O)n3C)CCO2)cc1
Cn1c(N2CCO[C@@H](c3ccc(Nc4ccccn4)cc3)C2)nc(-c2ccncc2F)cc1=O
Cn1c(N2CCO[C@@H](c3cccc(NC(=O)C4CC4)c3)C2)nc(-c2ccncc2F)cc1=O
Cn1c(N2CCO[C@@H](c3ccc(NC4CCCC4)cc3)C2)nc(-c2ccncc2F)cc1=O
CN(C)[C@@H]1CCN(c2ccc([C@H]3CN(c4nc(-c5ccncc5F)cc(=O)n4C)CCN3)cc2)C1
CN1CCC2(CCN(c3ccc([C@H]4CN(c5nc(-c6ccncc6F)cc(=O)n5C)CCN4)cc3)CC2)C1
CC(O)c1ccc([C@H]2CN(c3nc(-c4ccncc4F)cc(=O)n3C)CCO2)cc1 (stereo partly drawn)
Cc1ccc(-c2ccc([C@H]3CN(c4nc(-c5ccncc5F)cc(=O)n4C)CCN3)cc2)cc1
Cn1c(N2CCO[C@@H](c3ccc(N4CCC[C@H]5CCCC[C@@H]54)cc3)C2)nc(-c2ccncc2F)cc1=O
Cn1c(N2CCO[C@@H](c3ccc(CN4CCOCC4)cc3)C2)nc(-c2ccncc2F)cc1=O
Cn1c(N2CCO[C@@H](c3ccc(N(c4ccccn4)c4ccccn4)cc3)C2)nc(-c2ccncc2F)cc1=O
Cn1c(N2CCO[C@@H](c3ccc(NC(=O)C4CCCC4)cc3)C2)nc(-c2ccncc2F)cc1=O
Cn1c(N2CCO[C@@H](c3ccc(OCCN4CCCC4)cc3)C2)nc(-c2ccncc2F)cc1=O
Cn1c(N2CCO[C@@H](c3ccc(N4CC[C@H](N5CCCC5)C4)cc3)C2)nc(-c2ccncc2F)cc1=O
Cn1c(N2CCN[C@@H](c3ccc(C#N)cc3)C2)nc(-c2ccncc2F)cc1=O
Cn1c(N2CCO[C@@H](c3ccc(OC4CCN(C(=O)c5ccccc5)CC4)cc3)C2)nc(-c2ccncc2F)cc1=O
Cn1c(N2CCO[C@@H](c3ccc(N(CCO)C4CCCCC4)cc3)C2)nc(-c2ccncc2F)cc1=O
Cn1c(N2CCN[C@@H](c3ccc(N4CC[C@H](C(N)=O)C4)cc3)C2)nc(-c2ccncc2F)cc1=O
Cn1c(N2CCO[C@@H](c3cccc(NS(C)(=O)=O)c3)C2)nc(-c2ccncc2F)cc1=O
CN1CCN(CCOc2ccc([C@H]3CN(c4nc(-c5ccncc5F)cc(=O)n4C)CCO3)cc2)CC1
Cn1c(N2CCO[C@@H](c3ccc(NC(=O)C4(C)CC4)cc3)C2)nc(-c2ccncc2F)cc1=O
Cn1c(N2CCO[C@@H](c3ccc(NC(=O)CN4CCOCC4)cc3)C2)nc(-c2ccncc2F)cc1=O
C[C@@H]1CN(c2ccc([C@H]3CN(c4nc(-c5ccncc5F)cc(=O)n4C)CCN3)cc2)C[C@H](C)O1
CC(C)N1CCN(c2ccc([C@H]3CN(c4nc(-c5ccncc5F)cc(=O)n4C)CCN3)cc2)CC1
Cn1c(N2CCO[C@@H](c3ccc(N4CC[C@@H](O)C4)cc3)C2)nc(-c2ccncc2F)cc1=O
Cn1c(N2CCO[C@@H](c3ccc(N4CCC(O)CC4)cc3)C2)nc(-c2ccncc2F)cc1=O
CN1CCN(CCCOc2ccc([C@H]3CN(c4nc(-c5ccncc5F)cc(=O)n4C)CCO3)cc2)CC1
CNc1ccc([C@H]2CN(c3nc(-c4ccncc4F)cc(=O)n3C)CCO2)cc1
CCOc1ccc(-c2ccc([C@H]3CN(c4nc(-c5ccncc5F)cc(=O)n4C)CCN3)cc2)cc1
Cn1c(N2CCN[C@@H](c3ccc(-c4ccc(C#N)cc4)cc3)C2)nc(-c2ccncc2F)cc1=O
Cn1c(N2CCOC(c3ccc4c(c3)CC(=O)N4)C2)nc(-c2ccncc2F)cc1=O (racemic)
CN(c1ccc([C@H]2CN(c3nc(-c4ccncc4F)cc(=O)n3C)CCN2)cc1)C1CCCCC1
COc1ccc(NS(C)(=O)=O)cc1[C@H]1CN(c2nc(-c3ccncc3F)cc(=O)n2C)CCO1
Cn1c(N2CCO[C@@H](c3ccc(NS(=O)(=O)Cc4ccccc4)cc3)C2)nc(-c2ccncc2F)cc1=O
CCN(CC)CCOc1ccc([C@H]2CN(c3nc(-c4ccncc4F)cc(=O)n3C)CCO2)cc1
Cc1nc(-c2ccc([C@H]3CN(c4nc(-c5ccncc5F)cc(=O)n4C)CCO3)cc2)no1
Cn1c(N2CCO[C@@H](c3ccc(OC(F)(F)F)cc3)C2)nc(-c2ccncc2F)cc1=O
Cn1c(N2CCO[C@@H](c3ccc(NS(=O)(=O)CCl)cc3)C2)nc(-c2ccncc2F)cc1=O
Cn1c(N2CCN[C@@H](c3ccc(-c4ccc(C(C)(C)C)cc4)cc3)C2)nc(-c2ccncc2F)cc1=O
CCN(CC)c1ccc([C@H]2CN(c3nc(-c4ccncc4F)cc(=O)n3C)CCO2)c(OC)c1
Cn1c(N2CCN[C@H](c3ccc(C#N)cc3)C2)nc(-c2ccncc2F)cc1=O
COc1ccc([C@H]2CN(c3nc(-c4ccncc4F)c(Br)c(=O)n3C)CCO2)cc1
Cn1c(N2CCO[C@@H](c3ccc(NC(=O)CN4CCN(c5ccccc5)CC4)cc3)C2)nc(-c2ccncc2F)cc1=O
